For data set [1], the system named is A. baumannii strain 98-37-09. As to the kind of experiment: Potentiation of ciprofloxacin toward serum grown A. baumannii. It counts as cell-based, Acinetobacter baumannii. The conditions noted are these: 100% human serum, 0.125 μg ml^−1 ciprofloxacin, 1× or 2× MEC, 48 hour, growth inhibition. An excerpt:
As a means to further prioritize non-toxic compounds of interest based on their therapeutic promise, it was considered that broad spectrum antimicrobial efflux pump inhibitors may be more clinically valuable than narrow-spectrum agents that only potentiate the activity of a limited number of antibiotics or that display activity toward a single bacterial species. […] To do so, 1×10^5 A. baumannii strain 98-37-09 were inoculated into individual wells of microtiter plates containing 100% human serum supplemented with 0.125 μg ml^−1 ciprofloxacin and 0, 1×, or 2× the compound's MEC, as defined by the lowest concentration needed to potentiated minocycline's antimicrobial effects (above). Plates were incubated for 48 hour at which point each compound's ability to potentiate ciprofloxacin was measured, as growth inhibition.

For data set [2], the system named is A. baumannii strain 98-37-09. As to the kind of experiment: MEC determination: potentiation of minocycline toward serum grown A. baumannii. In kind it is cell-based, Acinetobacter baumannii. The settings on record: for Log-reduction Colony Forming Units (ml^−1): 1×MEC of compound plus minocycline in serum, versus minocycline alone, plating; for MEC: lowest concentration inhibiting growth in 100% human serum with 0.5 μg ml^−1 minocycline, 48 hr. As to the method: The TimTec ActiProbe-25K diversity-set and Natural Product compound libraries (29,900 compounds total; TimTec, Newark, Del.) were initially screened for putative efflux pump inhibitors by identifying compounds that potentiated the antimicrobial property of a sub-inhibitory concentration of minocycline toward A. baumannii grown in human serum. To do so, A. baumannii strain 98-37-09 was grown for 16 hours in LB medium at 37° C. on a rotary shaker at 225 rpm. Approximately 1×10^5 CFU were then transferred to individual wells of a 96-well round-bottom plate (Corning Costar, Tewksbury, Mass.) containing 100 μL of human serum supplemented with of minocycline (0.5 μg mL^−1; 0.5× minimum inhibitory concentration in serum) and individual members of the Timtec ActiProbe or Natural product library (50 μM). Plates were then incubated at 37° C. for 48 hours. Growth was measured as a function of turbidity. Putative efflux pump inhibitors were identified as compounds that inhibited A. baumannii growth in human serum containing minocycline and were subsequently retested in triplicate, as indicated above. Untreated A. baumannii grown in serum supplemented with minocycline+/−PAβN served as positive and negative controls, respectively. […] Repeat testing in which well constituents were serial diluted and plated on LB agar plates validated that 85 compounds did indeed limit A. baumannii growth in serum supplemented with minocycline, reducing the number of viable colony forming units between 2-6 log cfu in comparison to minocycline alone treated cells.
The MEC was defined as the lowest concentration of test compound required to inhibit the growth of A. baumannii in serum in the presence of 0.5 μg ml^−1 minocycline. Plating confirmed that addition of 1×MEC of each compound elicited ≥1.9-log reduction in A. baumannii cells grown in serum supplemented with minocycline alone (see Table 1).

Data set [3] concerns A. baumannii strain 98-37-09. As to the kind of experiment: Cellular accumulation of minocycline (HPLC, triple-quadrupole MS). It counts as cell-based, Acinetobacter baumannii. The settings on record: human serum with 0.5 μg mL^−1 minocycline plus test compound (0.5×MEC, 1×MEC), 48 hours. As to the method: High pressure liquid chromatography and triple-quadrupole mass spectrometry were used to measure the A. baumannii intracellular levels of minocycline during growth in human serum in the absence and presence of each putative efflux pump inhibitor. […] Cultures were incubated for 48 hours with shaking, at which point an aliquot was removed, serially diluted, and plated to determine the number of viable CFU per mixture. The remainder of the cells were pelleted by centrifugation at 900×g at 4° C., washed twice in PBS, mechanically lysed with a FastPrep cell disrupter (MP Biomedicals, Santa Ana, Calif.) for 20 seconds at 5 m s^−1 and the cellular debris was pelleted via centrifugation at 900×g and 4° C. The amount of minocycline present within the supernatant of ruptured cells was measured. Briefly, doxycycline (0.5 μg mL^−1) was first added to each supernatant to serve as an internal control to account for sample-to-sample preparation variability. The supernatant was then combined with acetonitrile (ACN) at a 1:10 ratio and centrifuged at 16,000×g, at 4° C., to collect minocycline and doxycycline. […] residual liquid was evaporated in a speed vacuum for 2 hours at 8,000×g. To quantify the amount of antibiotics retained, sample materials were suspended in 50% acetonitrile, filtered through a 0.2 μm low protein binding hydrophilic membrane (Millipore, Billerica, Mass.) then separated on Shimadzu high performance liquid chromatography instrument (Fisher Scientific) using a BetaBasic C18 reverse phase column (Thermo Scientific). Separation was carried out with two mobile phase solutions consisting of solution (A) water with 0.1% formic acid and solution (B) 100% ACN. The gradient profile of the chromatography runs was as follows: from 0 to 0.1 min 8% solution B, ramp step wise (37% to 60% solution B) from 0.1 to 6.5 min then holding for one minute before ramping down from 60% to 10% from 7.5 to 8 min. This was followed a hold at 10% solution B for one minute. […] The column was equilibrated in 8% solution B at 40° C. and the flow rate was set to 0.2 mL min^−1. Mass spectrometry analysis of fractions was carried out using a Thermo TSQ Quantum Ultra triple quadrupole mass spectrometer (Fisher Scientific). Data were analyzed using Xcalibur software (Thermo Scientific); the following parameters were used to detect minocycline and the internal control doxycycline: 458.208 m/z→282.971 m/z (collision energy=43, tube lens=119) for minocycline and 445.144 m/z→266.900 m/z (collision energy=39, tube lens=127) for doxycycline. Analysis of the raw data was conducted by using the area under the curve calculations with the Genesis algorithm to determine the concentration in each sample. The difference between the peak intensity and the y intercept of pre-established minocycline and doxycycline standard curves was divided by the slope of the standard curve to quantify the amount of minocycline within each sample. The total concentration of minocycline within each cell was calculated by normalizing to the number of cells within each corresponding culture.

Data set [4] has as its system human HepG2 cells. As to the kind of experiment: MTT cell viability (cytotoxicity) assay. How it is done: To distinguish putatively non-toxic from human cytotoxic compounds, conventional 3-(4,5-dimethylthiazol-2yl)-2,5-diphenyltetrazolium bromide (MTT) cell viability assays (American Type Culture Collection, Manassas, Va.) were performed for each compound of interest at 1× and 4× their MEC. Briefly, human HepG2 cells were grown to approximately 1×10^6 cells per well in Dulbecco's Modified Eagle Media supplemented with 10% fetal bovine serum (Invitrogen, Carlsbad, Calif.) then treated with 1× or 4× the MEC of the indicated […] Cell viability was measured following the addition of the tetrazolium salt (MTT) as per the manufacturer's recommendations; cells challenged with 50 ug ml^−1 Mitomycin C (Sigma Aldrich) and mock-treated cells served as positive and negative controls, respectively.

Molecules are shown by their SMILES. Read-outs that look alike come from different tables or passages of the source.

Turning to `Cc1cc2c(c(=O)o1)C(c1ccc(F)cc1)C(C#N)=C(N)O2` (stereo not drawn) [ST007013], the “Potentiate Ciprofloxacin A. baumannii” value in data set [1] was “No”. In addition, in data set [2], the “Log-reduction Colony Forming Units (ml^−1)” value was determined as 1.95 log and the MEC turned out to be 4 µg/mL. Moreover, the “Minocylcine Per Cell (femtomoles cell^−1)” value (“Minocylcine Per Cell” for short) in data set [3] is 5E−04 femtomoles cell^−1. Moreover, the “% Viability” value in data set [4] turned out to be 80.9%.
The matching figures for `Cc1ccc(C=Nc2cc([N+](=O)[O-])ccc2O)cc1` [ST010277]: “No”, 7.33 log, 32 µg/mL, 1.15E−05 femtomoles cell^−1 and 82.4%.
Consider `CCOC(=O)/C=C/C(=O)Nc1ccc(S(=O)(=O)Nc2nccs2)cc1` [ST026450], for which the “Potentiate Ciprofloxacin A. baumannii” value in data set [1] was “No”. Moreover, in data set [2], the “Log-reduction Colony Forming Units (ml^−1)” value worked out at 5.37 log and the MEC came to 32 µg/mL. The “Minocylcine Per Cell” value in data set [3] is on record as 2.35E−06 femtomoles cell^−1. Also, in data set [4] (human, 48 h, 4 ×MEC), the “% Viability” value amounted to 100%.
Taken in the same sequence, the figures for `CCOC(=O)/C=C/C(=O)Nc1ccc(S(N)(=O)=O)cc1` [ST026465] were “No”, 6.36 log, 32 µg/mL, 3.82E−04 femtomoles cell^−1 and 100%.
Turning to `C/C(=N\NC(=O)c1ccccc1F)c1ccccc1O` [ST033061], the “Potentiate Ciprofloxacin A. baumannii” value in data set [1] was “No”. In data set [2], the “Log-reduction Colony Forming Units (ml^−1)” value came out at 2.18 log and the MEC worked out at 2 µg/mL. Besides, the “Minocylcine Per Cell” value in data set [3] is 1.96E−04 femtomoles cell^−1. The “% Viability” value in data set [4] is reported as 77.58%.
Taken in the same sequence, the figures for `N#Cc1c(/N=C/c2ccc([N+](=O)[O-])o2)sc2c1CCCC2` [ST033065] were “No”, 2.44 log, 2 µg/mL, 2.06E−05 femtomoles cell^−1 and 75.6%.
With `O=C(N/N=C/c1ccc2c(c1)OCO2)c1ccccc1O` [ST033341], the “Potentiate Ciprofloxacin A. baumannii” value in data set [1] was “No”. Further, in data set [2], the “Log-reduction Colony Forming Units (ml^−1)” value stood at 2.42 log and the MEC amounted to 2 µg/mL. The “Minocylcine Per Cell” value in data set [3] is 3.39E−05 femtomoles cell^−1. In addition, in data set [4], the “% Viability” value was 75.88%.
Taken in the same sequence, the figures for `Cc1cccc(N(CC(=O)Nc2ccc(Cc3ccncc3)cc2)S(=O)(=O)c2ccccc2)c1` [ST034014] were “No”, 2.37 log, 2 µg/mL, 5.46E−04 femtomoles cell^−1 and 84.27%.
Taken in the same sequence, the figures for `COc1ccc(C2N(Cc3ccccc3)CCN2Cc2ccccc2)cc1` [ST036291] were “No”, 3.31 log, 2 µg/mL, 5.5E−05 femtomoles cell^−1 and 75.74%.
Taken in the same sequence, the figures for `COC(=O)CCC(=O)Nc1ccc(S(N)(=O)=O)cc1` [ST040289] were “No”, 4.32 log, 4 µg/mL, 8.38E−04 femtomoles cell^−1 and 78.8%.
In the case of `CC(=O)NS(=O)(=O)c1ccc(N)cc1` [ST040724], the “Potentiate Ciprofloxacin A. baumannii” value in data set [1] was “No”. Moreover, in data set [2], the “Log-reduction Colony Forming Units (ml^−1)” value was 4.08 log and the MEC is 64 µg/mL. In addition, in data set [3], the “Minocylcine Per Cell” value was 1.45E−04 femtomoles cell^−1.

For the origin of these results see US10471028B2, “Small molecule efflux pump inhibitors” (UNIVERSITY OF ROCHESTER, priority 2014, dated 2019).
